Laboratory results taken from paper PMC4224607 (Chemical communications (Cambridge, England), 2014).

Experiment: COPAS bead-based screening, background binding of the dye to library beads
Details: TR-labeled lysine and TR-labeled hCAII

O=S(=O)([O-])c1cc(S(=O)(=O)Cl)ccc1C1=c2cc3c4c(c2Oc2c1cc1c5c2CCCN5CCC1)CCC[N+]=4CCC3 [TR]
composition of positive peptides: positively charged amino acids: reduced abundance of positively charged amino acids
